From paper PMC7931078 (Molecules, 2021) come the findings set out here.

What all share (type): cell-based
Assay [1] deals with Mycobacterium tuberculosis pMSp12::GFP. As to the kind of experiment: microbe, parasite or virus in culture.
Assay [2] deals with 3D7 strain of Plasmodium falciparum. As to the kind of experiment: In vitro antiplasmodial assay (pLDH).
Assay [3] has as its system Trypanosoma brucei brucei 427 trypomastigotes. As to the kind of experiment: In vitro anti-trypanosomal assay. The note with it: Trypanosoma brucei, 24 h, 427 strain, read-out: IC50 T. b. brucei. On the procedure: Trypanosoma brucei brucei 427 trypomastigotes were cultured in iscove’s modified Dulbecco’s medium (IMDM; Lonza, Basel, Switzerland) supplemented with 10% fetal calf serum, HMI-9 supplement, hypoxanthine and penicillin/streptomycin at 37 °C in a 5% CO2 incubator. Serial dilutions of test compounds were incubated with the parasites in 96-well plates for 24 h and residual parasite viability in the wells determined as previously reported.

Assay [4] concerns HEK293 cells. In words: In vitro cytotoxicity assay. The note with it: Homo sapiens, HEK293, read-out: IC50 HEK293.
For assay [5], the system named is S. aureus (MRSA). In words: microbe, parasite or virus in culture. The note with it: Staphylococcus aureus, read-out: MIC against S. aureus (MRSA).
Assay [6] deals with ESKAPE (E. faecium, A. baumanni, K. pneumoniae, P. aeruginosa, S. aureus) pathogens. As to the kind of experiment: Antibacterial broth microdilution, ESKAPE pathogens. The note with it: colistin and vancomycin as standards.
Assay [7] has as its system A. baumanni. In words: Antibacterial broth microdilution, A. baumanni. The note with it: read-out: MIC against A. baumanni. (In general: Dilution methods test growth across graded concentrations, often in twofold steps.)
Setting [8] is: Mycobacterium tuberculosis, H37RV, 336 h.
Setting [9] is: Plasmodium falciparum, 3D7, 48 h, read-out: IC50 Pf 3D7, chloroquine sensitive strain 3D7, 48 h, pLDH.
The mark [10] stands for this setting: read-out: IC50 Pf 3D7, chloroquine sensitive strain 3D7, 48 h, pLDH.

Values after ≈ are worked out from the molar mass of the structure shown. “Also recorded” adds a separate entry of the source. Where two headings read alike, the source gives them in different places. A value given as a limit tells only on which side of the number the result lay.

As usually defined, the IC50 is the point on the concentration scale where inhibition reaches its midpoint. As to `CCOC(=O)c1cn(CC)c2ccc(Cn3cnc4c3c(=O)n(C)c(=O)n4C)cc2c1=O` [Compound 3a, Ethyl 6-((1,3-dimethyl-2,6-dioxo-1,2,3,6-tetrahydro-7H-purin-7-yl)methyl)-1-ethyl-4-oxo-1,4-dihydroquinolone-3-carboxylate], the MIC90 was >125 µM in assay [1] and > 125 µM in assay [1] (setting [8]). Also, the IC50 in assay [2] (setting [9]) was > 20 µM; in assay [3], > 20 µM; in assay [4], > 32 µg/mL.
Take `CCOC(=O)c1cn(Cc2ccccc2)c2ccc(Cn3cnc4c3c(=O)n(C)c(=O)n4C)cc2c1=O` [Compound 3c, Ethyl 1-benzyl-6-((1,3-dimethyl-2,6-dioxo-1,2,3,6-tetrahydro-7H-purin-7-yl)methyl)-4-oxo-1,4-dihydroquinolone-3-carboxylate]: the MIC90 in assay [1] (setting [8]) is > 125 µM. Also, the IC50 in assay [2] (setting [9]) is > 20 µM; in assay [3], 14.5 µM; in assay [4] it was > 32 µg/mL.
Regarding `CCOC(=O)c1cn(Cc2ccc(Br)cc2)c2ccc(Cn3cnc4c3c(=O)n(C)c(=O)n4C)cc2c1=O` [Compound 3d, Ethyl 1-(4-bromobenzyl)-6-((1,3-dimethyl-2,6-dioxo-1,2,3,6-tetrahydro-7H-purin-7-yl)methyl)-4-oxo-1,4-dihydroquinolone-3-carboxylate], the MIC90 in assay [1] (setting [8]) was 15.6 µM (≈ 9.02 µg/mL). The values for the half-inhibitory concentration (IC50) in assay [2] (setting [9]), in assay [3] and in assay [4] were 13.6 µM, 21.6 µM and > 32 µg/mL, respectively.
As to `CCn1cc(C(=O)NCCNCCO)c(=O)c2cc(Cn3cnc4c3c(=O)n(C)c(=O)n4C)ccc21` [Compound 4a, 6-((1,3-Dimethyl-2,6-dioxo-1,2,3,6-tetrahydro-7H-purin-7-yl)methyl)-1-ethyl-N-(2-((2-hydroxyethyl)amino)ethyl)-4-oxo-1,4-dihydroquinolone-3-carboxamide], the MIC90 is >125 µM in assay [1] and > 125 µM in assay [1] (setting [8]). In addition, the IC50 in assay [2] (setting [9]) was > 20 µM; in assay [3], > 20 µM; in assay [4], > 32 µg/mL.
For the compound `CCn1cc(C(=O)NCCOCCO)c(=O)c2cc(Cn3cnc4c3c(=O)n(C)c(=O)n4C)ccc21` [Compound 4b, 6-((1,3-Dimethyl-2,6-dioxo-1,2,3,6-tetrahydro-7H-purin-7-yl)methyl)-1-ethyl-N-(2-(2-hydroxyethoxy)ethyl)-4-oxo-1,4-dihydroquinolone-3-carboxamide], the MIC90 in assay [1] (setting [8]) is > 125 µM. The results for the half-maximal inhibitory concentration (IC50) in assay [2] (setting [9]), in assay [3] and in assay [4] were > 20 µM, > 20 µM and > 32 µg/mL, respectively.
`Cn1c(=O)c2c(ncn2Cc2ccc3c(c2)c(=O)c(C(=O)NCCNCCO)cn3Cc2ccccc2)n(C)c1=O` [Compound 4d, 1-Benzyl-6-((1,3-dimethyl-2,6-dioxo-1,2,3,6-tetrahydro-7H-purin-7-yl)methyl)-N-(2-((2-hydroxyethyl)amino)ethyl)-4-oxo-1,4-dihydroquinolone-3-carboxamide]: the MIC90 in assay [1] (setting [8]) came out at 7.9 µM (≈ 4.41 µg/mL). Further, the half-inhibitory concentration (IC50) was ≥ 25 µM in assay [2] (setting [9]), > 20 µM in assay [2] (setting [10]), > 20 µM in assay [3] and > 32 µg/mL in assay [4].
On to `Cn1c(=O)c2c(ncn2Cc2ccc3c(c2)c(=O)c(C(=O)NCCOCCO)cn3Cc2ccccc2)n(C)c1=O` [Compound 4e, 1-Benzyl-6-((1,3-dimethyl-2,6-dioxo-1,2,3,6-tetrahydro-7H-purin-7-yl)methyl)-N-(2-(2-hydroxyethoxy)ethyl)-4-oxo-1,4-dihydroquinolone-3-carboxamide], for which, in assay [1] (setting [8]), the MIC90 was > 125 µM. The IC50 in assay [2] (setting [9]) was ≥ 25 µM; in assay [2] (setting [10]) it was > 20 µM; in assay [3], 26.8 µM; in assay [4], > 32 µg/mL.
On to `COCCNC(=O)c1cn(Cc2ccccc2)c2ccc(Cn3cnc4c3c(=O)n(C)c(=O)n4C)cc2c1=O` [Compound 4f, 1-Benzyl-6-((1,3-dimethyl-2,6-dioxo-1,2,3,6-tetrahydro-7H-purin-7-yl)methyl)-N-(2-methoxyethyl)-4-oxo-1,4-dihydroquinolone-3-carboxamide], for which the MIC90 in assay [1] (setting [8]) was > 125 µM. Further, the IC50 is > 20 µM in assay [2] (setting [9]), > 20 µM in assay [3] and > 32 µg/mL in assay [4].
In the case of `Cn1c(=O)c2c(ncn2Cc2ccc3c(c2)c(=O)c(C(=O)NCCNCCO)cn3Cc2ccc(Br)cc2)n(C)c1=O` [Compound 4g, 1-(4-Bromobenzyl)-6-((1,3-dimethyl-2,6-dioxo-1,2,3,6-tetrahydro-7H-purin-7-yl)methyl)-N-(2-((2-hydroxyethyl)amino)ethyl)-4-oxo-1,4-dihydroquinolone-3-carboxamide], the MIC90 in assay [1] (setting [8]) is 7.9 µM (≈ 5.03 µg/mL). The results for the IC50 in assay [3] and in assay [4] were > 20 µM and > 32 µg/mL, respectively.
With `Cn1c(=O)c2c(ncn2Cc2ccc3c(c2)c(=O)c(C(=O)NCCOCCO)cn3Cc2ccc(Br)cc2)n(C)c1=O` [Compound 4h, 1-(4-Bromobenzyl)-6-((1,3-dimethyl-2,6-dioxo-1,2,3,6-tetrahydro-7H-purin-7-yl)methyl)-N-(2-(2-hydroxyethoxy)ethyl)-4-oxo-1,4-dihydroquinolone-3-carboxamide], the values for the MIC90 in assay [1] and in assay [1] (setting [8]) were >125 µM and > 125 µM, respectively. Besides, the IC50 in assay [2] (setting [9]) was 0.68 µM; in assay [3], > 20 µM; in assay [4], > 32 µg/mL.
With `CCOC(=O)c1cn(CC)c2ccc(OCc3ccc(C(F)(F)F)cc3)cc2c1=O` [Compound 7a, Ethyl 1-ethyl-4-oxo-6-((4-(trifluoromethyl)benzyl)oxy)-1,4-dihydroquinolone-3-carboxylate], the MIC90 in assay [1] (setting [8]) was > 125 µM. Also, the half-inhibitory concentration (IC50) in assay [3] is 18.5 µM; in assay [4], > 32 µg/mL.
`CCn1cc(C(=O)NCCOCCO)c(=O)c2cc(OCc3ccc(C(F)(F)F)cc3)ccc21` [Compound 8a, 1-Ethyl-N-(2-(2-hydroxyethoxy)ethyl)-4-oxo-6-((4-(trifluoromethyl)benzyl)oxy)-1,4-dihydroquinolone-3-carboxamide] came in with an MIC90 in assay [1] (setting [8]) of 7.8 µM (≈ 3.73 µg/mL). Moreover, the IC50 in assay [2] (setting [9]) is < 10 µM; in assay [2] (setting [10]) it was 6.8 µM; in assay [3], 14.1 µM; in assay [4] it was > 32 µg/mL.
Turning to `CCn1cc(C(=O)NCCOCCO)c(=O)c2cc(OCc3ccc(C(F)(F)F)cc3)c(Cl)cc21` [Compound 8d, 7-Chloro-1-ethyl-N-(2-(2-hydroxyethoxy)ethyl)-4-oxo-6-((4-(trifluoromethyl)benzyl)oxy)-1,4-dihydroquinolone-3-carboxamide], the MIC90 in assay [1] (setting [8]) was > 125 µM. Besides, the IC50 is > 20 µM in assay [2] (setting [9]), > 20 µM in assay [3] and > 32 µg/mL in assay [4].
In the case of `O=C(NCCNCCO)c1cn(Cc2ccccc2)c2cc(Cl)c(OCc3ccc(C(F)(F)F)cc3)cc2c1=O` [Compound 8g, 1-Benzyl-7-chloro-N-(2-((2-hydroxyethyl)amino)ethyl)-4-oxo-6-((4-(trifluoromethyl)benzyl)oxy)-1,4-dihydroquinolone-3-carboxamide], the MIC in assay [5] was 32 µg/mL (≈ 55.7 µM). The MIC90 in assay [1] was 0.9 µM (≈ 0.517 µg/mL); in assay [1] (setting [8]), 0.9 to 2 µM (≈ 0.517 to 1.15 µg/mL). The “activity against ESKAPE pathogens (in words)” value in assay [6] is “moderate to poor activity; also recorded: moderate to weak, narrow spectrum activity”. For the same compound, the IC50 was 0.4 µM in assay [2] (setting [9]), 0.46 µM in assay [2] (setting [10]) and > 32 µg/mL in assay [4].
`O=C(NCCOCCO)c1cn(Cc2ccccc2)c2cc(Cl)c(OCc3ccc(C(F)(F)F)cc3)cc2c1=O` [Compound 8h, 1-Benzyl-7-chloro-N-(2-(2-hydroxyethoxy)ethyl)-4-oxo-6-((4-(trifluoromethyl)benzyl)oxy)-1,4-dihydroquinolone-3-carboxamide] had an MIC90 in assay [1] (setting [8]) of 16 µM (≈ 9.2 µg/mL). Further, the results for the IC50 in assay [2] (setting [9]), in assay [3] and in assay [4] were > 20 µM, > 20 µM and > 32 µg/mL, respectively.
`CCOC(=O)c1cn(CC)c2ccc([N+](=O)[O-])cc2c1=O` [Compound 11, Ethyl 1-ethyl-6-nitro-4-oxo-1,4-dihydroquinolone-3-carboxylate] yielded an MIC90 in assay [1] (setting [8]) of 31.3 µM (≈ 9.09 µg/mL). For the same compound, the IC50 is > 20 µM in assay [2] (setting [9]), > 20 µM in assay [3] and > 32 µg/mL in assay [4].
For `CCOC(=O)c1cn(Cc2ccccc2)c2ccc(N)cc2c1=O` [Compound 12, Ethyl 6-amino-1-benzyl-4-oxo-1,4-dihydroquinolone-3-carboxylate], in assay [1] (setting [8]), the MIC90 was > 125 µM. Further, the values for the concentration for half-maximal inhibition (IC50) in assay [2] (setting [9]), in assay [3] and in assay [4] were 10 µM, > 20 µM and > 32 µg/mL, respectively.
As for `CCOC(=O)c1cn(Cc2ccccc2)c2ccc(/N=C/c3ccc([N+](=O)[O-])o3)cc2c1=O` [Compound 13, Ethyl-1-benzyl-6-(((5-nitrofuran-2-yl)methylene)amino)-4-oxo-1,4-dihydroquinolone-3-carboxylate], the MIC90 in assay [1] is 8.0 µM (≈ 3.56 µg/mL); in assay [1] (setting [8]), 8 µM (≈ 3.56 µg/mL). In addition, the “activity against ESKAPE pathogens (in words)” value in assay [6] is “moderate to poor activity; also recorded: moderate to weak, narrow spectrum activity”. Also, the IC50 in assay [2] (setting [9]) was < 10 µM; in assay [2] (setting [10]) it was 6.5 µM; in assay [3], 5.2 µM; in assay [4] it was > 32 µg/mL. Further, the MIC in assay [7] was found to be 16 µg/mL (≈ 35.9 µM).
Consider `Nc1ccc2c(c1)c(=O)c(C(=O)NCCOCCO)cn2Cc1ccccc1` [Compound 14, 6-Amino-1-benzyl-N-(2-(2-hydroxyethoxy)ethyl)-4-oxo-1,4-dihydroquinolone-3-carboxamide], for which the results for the MIC90 in assay [1] and in assay [1] (setting [8]) were >125 µM and > 125 µM, respectively. Also, the figures for the 50% inhibitory concentration (IC50) in assay [2] (setting [9]), in assay [3] and in assay [4] were > 20 µM, > 20 µM and > 32 µg/mL, respectively. Besides, in assay [2] (chloroquine sensitive strain 3D7, 48 h, pLDH), the “IC50 Pf 3D7” value was “complete loss of antiplasmodial activity”.
